Values of other authors in patent US7045323B2 (priority 1999, dated 2006).

Columns and labels:
[1] = tested on: HIV reverse transcription process
proviral DNA load = details: murine model of immunodeficiency; first stage of infection

| Compound | inhibition of the HIV reverse transcription process [1] | proviral DNA load (proviral DNA load) |
| --- | --- | --- |
| N[C@@H](CCC(=O)N[C@@H](CS)C(=O)NCC(=O)O)C(=O)O [GSH, glutathione] | can inhibit | able to decrease the proviral DNA load |
| CC(=O)N[C@@H](CS)C(=O)O [N-acetylcysteine] | can inhibit | – |
